Laboratory results: patent publication US20230124087A1, “KV3 ENHANCERS FOR THE TREATMENT OF COGNITIVE DISORDERS” (Hoffmann-La Roche Inc., priority 2020, published 2023)
Like-named read-outs stand apart in the source and are kept apart here.

Target: T1, Kv3.1 (Homo sapiens, UniProt P48547)
T1 construct: expressed in transfected cells
T1 sequence (P48547 1-511): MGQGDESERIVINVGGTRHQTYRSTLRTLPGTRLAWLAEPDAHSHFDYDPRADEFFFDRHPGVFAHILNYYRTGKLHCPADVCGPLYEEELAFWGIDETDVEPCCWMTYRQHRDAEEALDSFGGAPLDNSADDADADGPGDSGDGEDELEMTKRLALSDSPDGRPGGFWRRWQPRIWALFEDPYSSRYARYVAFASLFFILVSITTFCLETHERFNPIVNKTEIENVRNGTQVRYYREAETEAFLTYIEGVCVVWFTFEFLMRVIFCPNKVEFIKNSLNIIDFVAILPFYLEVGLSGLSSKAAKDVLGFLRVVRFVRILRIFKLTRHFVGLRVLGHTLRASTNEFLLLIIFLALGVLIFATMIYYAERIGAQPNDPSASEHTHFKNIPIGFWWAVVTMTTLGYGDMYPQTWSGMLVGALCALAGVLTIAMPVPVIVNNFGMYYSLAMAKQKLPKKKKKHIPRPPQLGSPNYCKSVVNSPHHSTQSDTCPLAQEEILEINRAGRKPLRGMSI
Experiment: Kv3.1 automated patch clamp (Qube) cellular electrophysiology assay
Type: cell-based
Excerpt: In vitro, high-throughput cellular electrophysiology was employed to detect voltage-dependence of compounds in single concentration screening and IC50 determination for library and medicinal chemistry profiling compounds in 384 well plates.
HEK-293 cell lines stably expressing coding DNA for Kv3.1, 3.2, 3.3, and 3.4 were validated on an automated patch clamp (APC) platform, Qube from Sophion/Denmark. Cell cultures were maintained in DMEM cell growth media containing FBS and appropriate antibiotics at 37° C., 5% CO2 for a maximum of 20 passages. Intra- and extracellular (w. glucose) HEPES buffers containing various monovalent and divalent cations were adjusted to pH 7.2 and 7.4 respectively. Cells were harvested at 75% confluency and resuspended in extracellular buffer and added to wells. Negative pressure was applied to establish whole cell recording by APC.
Currents through activated channels were measured directly by APC by employing depolarization voltage steps. Baseline currents were established for the voltage-dependence protocols using a −80 mV holding potential and multiple test pulses at +10 mV or by 10 mV steps from −80 mV to +40 mV, respectively. Test compounds were added after baseline recordings followed by a 10 min incubation, and voltage-dependency protocol recordings. Data was corrected for baseline and leak currents (well based) and normalized for % potentiation (plate based). Two previously reported Kv3 positive modulators of varying potencies were used for run to run and plate to plate quality controls. A non-selective and potent positive modulator was used as a positive control. Percent potentiation was analyzed at −20 mV of the voltage-dependency protocol and voltage shift in channel activation was analyzed using the voltage step protocol from −80 mV to +40 mV. Selectivity was assessed against Kv3.2, Kv3.3, and Kv3.4 overexpressing cell lines using similar methods.

EC50 (HEK-293 cell line stably expressing Kv3.1, automated patch clamp, 10 min incubation, read-out: EC50 Kv3.1) [µM] | SMILES | EC50 [µM]
– | Cc1ccc(Oc2ccc(-n3c(=O)[nH]c4cccnc43)cn2)cc1F [Example 35, 3-[6-(3-fluoro-4-methyl-phenoxy)-3-pyridyl]-1H-imidazo[4,5-b]pyridin-2-one] | 3.6
– | Cc1ccc(Oc2ccc(-n3c(=O)[nH]c4cccnc43)cn2)c(F)c1 [Example 36, 3-[6-(2-fluoro-4-methyl-phenoxy)-3-pyridyl]-1H-imidazo[4,5-b]pyridin-2-one] | 4.3
– | Cc1cc(C#N)ccc1Oc1ccc(-n2c(=O)[nH]c3cccnc32)cn1 [Example 37, 3-methyl-4-[[5-(2-oxo-1H-imidazo[4,5-b]pyridin-3-yl)-2-pyridyl]oxy]benzonitrile] | 6
– | Cc1cc(C#N)cc(C)c1Oc1ccc(-n2c(=O)[nH]c3cccnc32)cn1 [Example 38, 3,5-dimethyl-4-[[5-(2-oxo-1H-imidazo[4,5-b]pyridin-3-yl)-2-pyridyl]oxy]benzonitrile] | 5.2
– | COc1cc(C)ccc1Oc1ccc(-n2c(=O)[nH]c3cccnc32)cn1 [Example 39, 3-[6-(2-methoxy-4-methyl-phenoxy)-3-pyridyl]-1H-imidazo[4,5-b]pyridin-2-one] | 5
– | N#Cc1ccc(Oc2ccc(-n3c(=O)[nH]c4cccnc43)cn2)c(C(F)(F)F)c1 [Example 40, 4-[[5-(2-oxo-1H-imidazo[4,5-b]pyridin-3-yl)-2-pyridyl]oxy]-3-(trifluoromethyl)benzonitrile] | 6.6
– | COc1cc(Oc2ccc(-n3c(=O)[nH]c4cccnc43)cn2)cnc1C [Example 41, 3-[6-[(5-methoxy-6-methyl-3-pyridyl)oxy]-3-pyridyl]-1H-imidazo[4,5-b]pyridin-2-one] | 16.4
– | Cc1ccc(Oc2ccc(-n3c(=O)[nH]c4cnccc43)cn2)cc1Cl [Example 42, 1-[6-(3-chloro-4-methyl-phenoxy)-3-pyridyl]-3H-imidazo[4,5-c]pyridin-2-one] | 10
– | COc1cc(Oc2ccc(-n3c(=O)[nH]c4cncnc43)cn2)ccc1C [Example 43, 9-[6-(3-methoxy-4-methyl-phenoxy)-3-pyridyl]-7H-purin-8-one] | 7.4
– | COc1cc(Oc2ncc(-n3c(=O)[nH]c4cnccc43)cc2F)ccc1C [Example 44, 1-[5-fluoro-6-(3-methoxy-4-methyl-phenoxy)-3-pyridyl]-3H-imidazo[4,5-c]pyridin-2-one] | 2.9
– | COc1cc(Oc2ncc(-n3c(=O)[nH]c4cnccc43)cc2C)ccc1C [Example 45, 1-[5-methyl-6-(3-methoxy-4-methyl-phenoxy)-3-pyridyl]-3H-imidazo[4,5-c]pyridin-2-one] | 3.1
– | COc1cc(Oc2ncc(-n3c(=O)[nH]c4cccnc43)cc2C)ccc1C [Example 46, 3-[6-(3-methoxy-4-methyl-phenoxy)-5-methyl-3-pyridyl]-1H-imidazo[4,5-b]pyridin-2-one] | 4
2.4 | Cc1ccc(Oc2ccc(-n3c(=O)[nH]c4cnccc43)cn2)cc1OC(F)(F)F [Example 47, 1-[6-[4-methyl-3-(trifluoromethoxy)phenoxy]-3-pyridyl]-3H-imidazo[4,5-c]pyridin-2-one] | –
– | COc1cc(Oc2ccc(-n3c(=O)[nH]c4nccnc43)cn2)ccc1C [Example 48, 3-[6-(3-methoxy-4-methyl-phenoxy)-3-pyridyl]-1H-imidazo[4,5-b]pyrazin-2-one] | 3.9
– | CCc1cc(Oc2ccc(-n3c(=O)[nH]c4cccnc43)cn2)ccc1C#N [Example 49, 2-ethyl-4-[[5-(2-oxo-1H-imidazo[4,5-b]pyridin-3-yl)-2-pyridyl]oxy]benzonitrile] | 4.1
– | Cc1ccc(Oc2ccc(-n3c(=O)[nH]c4cncnc43)cn2)cc1Cl [Example 50, 9-[6-(3-chloro-4-methyl-phenoxy)-3-pyridyl]-7H-purin-8-one] | 12.2
– | CC(C)(C)c1cc(C#N)ccc1Oc1ccc(-n2c(=O)[nH]c3cccnc32)cc1F [Example 51, 3-tert-butyl-4-[2-fluoro-4-(2-oxo-1H-imidazo[4,5-b]pyridin-3-yl)phenoxy]benzonitrile] | 12.7
– | CC(C)c1cc(C#N)ccc1O[C@H]1C[C@H](n2c(=O)[nH]c3cccnc32)C1 [Example 52, 3-isopropyl-4-[3-(2-oxo-1H-imidazo[4,5-b]pyridin-3-yl)cyclobutoxy]benzonitrile] | 17.4
– | COc1cc(O[C@H]2C[C@H](n3c(=O)[nH]c4cnccc43)C2)ccc1C [Example 53, 1-[3-(3-methoxy-4-methyl-phenoxy)cyclobutyl]-3H-imidazo[4,5-c]pyridin-2-one] | 3.6
